From PMC8297402, “Trifluoromethyl-substituted 3,5-bis(arylidene)-4-piperidones as potential anti-hepatoma and anti-inflammation agents by inhibiting NF-кB activation” (Journal of Enzyme Inhibition and Medicinal Chemistry, 2021)
Like-named read-outs stand apart in the source and are kept apart here.

Tests used:
[1] = tested on: HepG2; experiment: Modified MTT cytotoxicity assay, HepG2; assay type: cell-based, Human; conditions: for IC50: MTT, 24 h incubation, three replicates, read-out: Cytotoxicity IC50 HepG2; for SI (selectivity index) HepG2: quotient of IC50 for normal (LO2) and malignant (HepG2) cells
Protocol: (§1) The HepG2, SMMC-7721, and LO2 cell lines were maintained at 37 °C, 5% humidified CO2, and 95% atmosphere. Dulbecco's Modified Eagle (DMEM) medium containing 10% foetal bovine serum (FBS) was used for culturing the HepG2 cell line; meanwhile, Roswell Park Memorial Institute (RPMI) 1640 medium containing 10% FBS was used for culturing other cell lines (SMMC-7721, LO2). The HepG2, SMMC-7721 and LO2 cells were seeded in a 96-well plate in 200 μL of medium per well at a density of approximately 8 × 10^3 cells/well and cultured for 24 h, followed by incubation in an incubator of indicated compounds with successive concentrations (10, 5, 2.5, 1.25, 0.625, 0.3125 μg/mL) for 24 h. In the control group, cells were only cultured with culture media. After the media were removed, 20 μL of MTT (5 mg/mL) was added, then cells were incubated for 4 h at 37 °C. […] GraphPad Prism 5 software was used to calculate their IC50 values. Every IC50 value was the average of three replicates. Doxorubicin (DOX) and curcumin were used as positive controls.

[2] = Modified MTT cytotoxicity assay, normal heptical cell line HHL-5; conditions: human, HHL-5 cells (normal hepatic cell line)
Protocol: (§3) To further verify the anti-tumour activity, one human non-small cell lung cancer cell line (A549), one human ovarian cancer cell line (A2780), and one human normal heptical cell line (HHL-5) were screened by BAPs (4–30) using a modified MTT assay (Supporting Information). DOX and curcumin were selected as positive controls.
(§4) The optical density (OD) value of each well was measured on a
(§5) multi-well plate reader (TECAN, Mӓnnedorf, Switzerland ) at 570 nm.
(§6) Every IC 50 value was the average of three replicates.
(§7) Doxorubicin (DOX) and Curcumin were used as positive controls.

[3] = tested on: A549; experiment: Modified MTT cytotoxicity assay, A549; conditions: for SI (selectivity index) A549: quotient of IC50 for normal (HHL-5) and malignant (A549) cells
[4] = tested on: TNF-α; experiment: ELISA of TNF-α release in LPS-stimulated RAW264.7 cells; assay type: cell-based, mouse; conditions: RAW264.7, ELISA; for inhibition at 5 µM: Mus musculus, RAW264.7, BAPs (5 μM) + LPS (1 μg/mL), read-out: Inhibition rate TNF-α; for Inhibition rate TNF-α: BAPs (5 μM) + LPS (1 μg/mL)
Protocol: (§2) We tested by inhibiting the secretion of TNF-α and IL-6 to better evaluated the anti-inflammatory effects of BAPs. […] Under the stimulation of LPS (1.0 μg/mL) with RAW264.7 cells, the release of TNF-α and IL-6 was detected. Besides, after treated with BAPs (5.0 μM) and LPS (1.0 μg/mL), the release of TNF-α and IL-6 was measured with an ELISA kit (eBioScience, San Diego, California), respectively. In general terms, pyrrolidine dithiocarbamate (PDTC, 30 μM) or BAP (5.0 μM) was used to pretreat cells for 2 h, respectively. Then, LPS (1.0 μg/mL) was added and cells were incubated for another 22 h. Finally, the culture media were centrifuged at 1000 rpm for 10 min, and the expression levels of TNF-α and IL-6 were determined by ELISA.

[5] = tested on: RAW264.7 cell; experiment: MTT toxicity pre-experiment on RAW264.7 macrophagocyte; assay type: cell-based, mouse; conditions: for viability at 5 µM: Mus musculus, RAW264.7, BAPs 5 μM, read-out: Survival rate RAW264.7 cell; for Survival rate RAW264.7 cell: BAPs 5 μM
Protocol: Lipopolysaccharide (LPS) is a key constituent of Gram-negative bacterial endotoxin, which is used to induce an inflammatory response in corresponding inflammatory cells. TNF-α and IL-6 are two kinds of representative pro-inflammatory factors, which produced by LPS-stimulated RAW264.7 macrophage. In our pre-experiments, the toxicity against RAW264.7 macrophagocyte for all title compounds was tested by the MTT assay, and the results were listed in Table 2. The survival rates were above 80% for all BAPs (4-30) at the concentration of 5.0 μM.

[6] = tested on: SMMC-7721; experiment: Modified MTT cytotoxicity assay, SMMC-7721; assay type: cell-based, Human; conditions: for IC50: MTT, 24 h incubation, three replicates; for SI (selectivity index) SMMC-7721: quotient of IC50 for normal (LO2) and malignant (SMMC-7721) cells
Protocol: as §1

[7] = Modified MTT cytotoxicity assay, normal heptical cell line LO2; assay type: cell-based, human; conditions: human, LO2 cells (normal hepatic cell line), 24 h incubation
Protocol: as §1

[8] = tested on: IL-6; experiment: ELISA of IL-6 release in LPS-stimulated RAW264.7 cells; assay type: cell-based, mouse; conditions: RAW264.7, ELISA; for inhibition at 5 µM: Mus musculus, RAW264.7, BAPs (5 μM) + LPS (1 μg/mL), read-out: Inhibition rate IL-6; for Inhibition rate IL-6: BAPs (5 μM) + LPS (1 μg/mL)
Protocol: as §2

[9] = tested on: A2780; experiment: Modified MTT cytotoxicity assay, A2780; conditions: for SI (selectivity index) A2780: quotient of IC50 for normal (HHL-5) and malignant (A2780) cells
Protocol: as §3, §4, §5, §6, §7

[10] = tested on: HHL-5; experiment: Modified MTT cytotoxicity assay, normal heptical cell line HHL-5; conditions: read-out: Cytotoxicity IC50 HHL-5; MTT, normal heptical cell line
Protocol: as §3, §4, §5, §6, §7

[11] = tested on: LO2; experiment: Modified MTT cytotoxicity assay, normal heptical cell line LO2; assay type: cell-based, human; conditions: 24 h incubation
Protocol: as §1

[12] = Homo sapiens, A549, read-out: Cytotoxicity IC50 A549, MTT, non-small cell lung cancer cell line
[13] = Homo sapiens, A2780, read-out: Cytotoxicity IC50 A2780, MTT, ovarian cancer cell line
[14] = read-out: Cytotoxicity IC50 A549, MTT, non-small cell lung cancer cell line
[15] = read-out: Cytotoxicity IC50 A2780, MTT, ovarian cancer cell line

Structure (SMILES) | melting point [°C] | IC50 ([1]; Homo sapiens, HepG2, 24 h) [µM] | SI (selectivity index) HepG2 [1] | IC50 [3, 12] [µM] | SI (selectivity index) A549 [3] | inhibition at 5 µM [4] [%] | viability at 5 µM [5] [%] | IC50 ([6]; Homo sapiens, SMMC-7721, 24 h) [µM] | SI (selectivity index) SMMC-7721 [6] | IC50 at 24 h [7] [µM] | SI (selectivity index) A2780 [9] | IC50 [1] [µM] | IC50 [10] [µM] | IC50 [3, 14] [µM] | Survival rate RAW264.7 cell [5] [%] | IC50 [6] [µM] | IC50 [11] [µM] | IC50 [9, 15] [µM] | Inhibition rate TNF-α [4] [%] | Inhibition rate IL-6 [8] [%] | further results
O=C1/C(=C/c2cccc(C(F)(F)F)c2)CN(S(=O)(=O)c2ccc([N+](=O)[O-])cc2)C/C1=C\c1cccc(C(F)(F)F)c1 [BAP 15] | 196 to 198 | 2.7 ± 0.1 | 4.7 | 0.13 ± 0.02 | 40.0 | 62.1 ± 0.7 | 81.9 ± 1.2 | 5 ± 0.1 | 2.5 | 12.6 ± 0.1 | 37.1 |  |  |  |  |  |  |  |  |  | IC50 [2]: 5.2 ± 0.3 µM; inhibition at 5 µM [8]: 60.8 ± 4.2%; IC50 [9, 13]: 0.14 ± 0.02 µM
O=C1/C(=C/c2ccccc2C(F)(F)F)CN(S(=O)(=O)c2ccc(Br)cc2)C/C1=C\c1ccccc1C(F)(F)F [BAP 10] | 197 to 199 | 14.7 ± 0.1 | 1.2 | 5.01 ± 0.45 | 2.9 | 59.2 ± 2.8 | 83.8 ± 2.9 | 4.7 ± 0.1 | 3.6 | 17 ± 0.4 | 6.2 |  |  |  |  |  |  |  |  |  | IC50 [2]: 14.5 ± 0.1 µM; inhibition at 5 µM [8]: 67.8 ± 3.2%; IC50 [9, 13]: 2.34 ± 0.39 µM
O=C1/C(=C/c2ccccc2C(F)(F)F)CN(S(=O)(=O)c2ccc(C(F)(F)F)cc2)C/C1=C\c1ccccc1C(F)(F)F [BAP 7] |  |  | 8.2 |  | 3.4 |  |  |  | 6.6 |  | 27.6 | ~2.1 | 9.1 ± 0.2 | 2.68 ± 0.53 | 87.3 ± 1.9 | ~2.6 | 17.2 ± 0.2 | 0.33 ± 0.03 |  |  | IC50 ([1]; listed as 7): 2.1 ± 0.1 µM; Inhibition rate TNF-α ([4]; 5 µM): ca. 69.9%; Inhibition rate TNF-α ([4]; listed as 7, 5 µM): 69.9 ± 1.1%; IC50 ([6]; listed as 7): 2.6 ± 0.2 µM; Inhibition rate IL-6 ([8]; 5 µM): ca. 71.2%; Inhibition rate IL-6 ([8]; listed as 7, 5 µM): 71.2 ± 1.3%
Cc1ccc(S(=O)(=O)N2C/C(=C\c3ccc(C(F)(F)F)cc3)C(=O)/C(=C/c3ccc(C(F)(F)F)cc3)C2)cc1 [BAP 23] |  |  | 13.1 |  | 23.3 |  |  |  | 16.4 |  | 21.9 | ~1 | 3.5 ± 0.2 | 0.15 ± 0.02 | 89.2 ± 3.0 | ~0.8 | 13.1 ± 0.3 | 0.16 ± 0.02 | 78.1 ± 3.2 | 69.2 ± 6.3 | IC50 ([1]; listed as 23): 1 ± 0.3 µM; IC50 ([6]; listed as 23): 0.8 ± 0.2 µM
O=C1/C(=C/c2ccc(C(F)(F)F)cc2)CN(S(=O)(=O)c2ccc([N+](=O)[O-])cc2)C/C1=C\c1ccc(C(F)(F)F)cc1 [BAP 24] |  |  | 12.0 |  | 44.1 |  |  |  | 4.5 |  | 44.1 | 1.2 ± 0.3 | 7.5 ± 0.6 | 0.17 ± 0.01 | 89.0 ± 1.6 | 3.2 ± 0.3 | 14.4 ± 0.1 | 0.17 ± 0.02 | 65.0 ± 1.8 | 57.3 ± 2.1 | 
O=C1/C(=C/c2ccccc2C(F)(F)F)CN(S(=O)(=O)c2ccc([N+](=O)[O-])cc2)C/C1=C\c1ccccc1C(F)(F)F [BAP 6] | 204 to 206 | 4.3 ± 0.2 | 3.7 | 7.58 ± 1.76 | 1.0 | 61 ± 2.7 | 85.7 ± 3.1 | 10.4 ± 0.2 | 1.5 | 15.7 ± 1.3 | 0.3 |  |  |  |  |  |  |  |  |  | inhibition at 5 µM [8]: 68.2 ± 3%; IC50 [9, 13]: 28.8 ± 5.33 µM
CC(=O)Nc1ccc(S(=O)(=O)N2C/C(=C\c3ccc(C(F)(F)F)cc3)C(=O)/C(=C/c3ccc(C(F)(F)F)cc3)C2)cc1 [BAP 30] |  |  | 7.9 |  | 21.4 |  |  |  | 4.6 |  | 16.2 | 1.8 ± 0.2 | 2.1 ± 0.1 | 0.098 ± 0.01 | 92.0 ± 1.3 | 3.1 ± 0.2 | 14.2 ± 1.1 | 0.13 ± 0.02 | 68.3 ± 3.1 | 70.1 ± 1.2 | 
CC(=O)Nc1ccc(S(=O)(=O)N2C/C(=C\c3cccc(C(F)(F)F)c3)C(=O)/C(=C/c3cccc(C(F)(F)F)c3)C2)cc1 [BAP 21] |  |  | 11.1 |  | 14.3 |  |  |  | 2.8 |  | 17.6 | 1.3 ± 0.1 | 3 ± 0.6 | 0.21 ± 0.01 | 90.2 ± 3.6 | 5.1 ± 0.1 | 14.4 ± 0.1 | 0.17 ± 0.01 | 78.5 ± 4.2 | 71.6 ± 5.3 | 
